Measured values reported in patent publication US20230107216A1, “PANTETHEINE DERIVATIVES AND USES THEREOF” (Comet Therapeutics, Inc., priority 2018, published 2023).

What was measured:
[1] = tested on: Peripheral blood mononuclear cells co-cultured with venular endothelial cells (Sag system); assay: BioMAP Sag system (T-cell ligands); format: cell-based, human; conditions: 10 uM; procedure of Example 828
Procedure: The BioMAP platform (BioMAP® Diversity PLUS® Panel from Eurofins) is an in vitro phenotypic profiling technology that screened the compounds of the present disclosure (hereafter indicated as test agents) in human primary cell-based systems modelling complex tissue and disease states. The BioMAP assays were performed using the Eurofin's BioMAP Technology Platform as (see references 1 to 13 in the example 824 section) to model different diseases on primary cell-based model systems. These systems consisted of either single primary cell types or co-culture cells. Adherent cell types were cultured or co-cultured in 96 or 384-well plates until confluence followed by the addition of compounds prepared in DMSO at a final concentration of ≤0.1%. In each cell-based system, primary cells from heathy donors (2-6 donors) were pooled and treated with compounds at 1 and 10 μM dose 1h prior to stimulation and remain in culture as indicated in Example 825, Example 826, Example 827, Example 828, Example 829, Example 830, Example 831, Example 832, Example 833, Example 834, Example 835, Example 836 and Example 837. For on the BioMAP® Diversity PLUS® Panel, please see the following references, which are incorporate herein.
Following the general procedure as described in Example 824, Peripheral blood mononuclear cells were co-cultured with venular endothelial cells and treated with soluble antigen (T-cell ligands) (Sag system) in the presence or absence of compounds to model autoimmune and chronic inflammation. Biomarkers read out were; MCP-1, CD38, CD40, E-selectin, CD69, IL-8, MIG, PBMC cytotoxicity, Proliferation and SRB.

[2] = tested on: Pkd1−/− mouse inner medullary collecting duct cells (mIMRFNPKD 5E4); assay: mPKD 3D cyst swelling assay (forskolin-induced); format: cell-based; conditions: after 72 hours of forskolin exposure
Procedure: Cell model and control compounds. mIMCD3 WT cells were obtained via ATCC and modified to create the mIMRFNPKD 5E4 cell line, which has a CRISPR-Cas mediated knockout for Pkd1 as described SLAS Discov. 2017 September; 22(8):974-984. doi: 10.1177/2472555217716056. Cells were cultured in DMEM/F12 (Sigma)+10% FBS (Sigma)+0.5% Pen/Strep (Gibco)+1% GluMax (Gibco). Control compounds used were forskolin (Calbiochem, 344282), Rapamycin (Selleckchem, S1039) and Staurosporin (Selleckchem, S1421).
The 3D mouse cyst swelling assay was performed with Pkd1^−/− mouse inner medullary collecting duct cells (mIMRFNPKD 5E4). The cyst swelling protocol that was used was described previously (SLAS Discov. 2017 September; 22(8):974-984. doi: 10.1177/2472555217716056), with further optimization.
3D culture and compound exposure. mIMRFNPKD 5E4 cells were mixed with Cyst-Gel (OcellO BV). 15 μL of cell-gel mix was pipetted to 384-well plates (Greiner μClear, Greiner Bio-One B.V.) using a CyBio Felix 96/60 robotic liquid dispenser (Analyik Jena AG). Gel-cell mix was plated at a final cell density of 2250 cells per well. After gel polymerization at 37° C. for 30 minutes, 33 μL culture medium was added to each well. Cells were grown in the gel for 96 hours, after which the cells were co-exposed with forskolin (Calbiochem, 344282) and one the following molecules: reference compound Rapamycin (SelleckChem, S1039), toxic control compound Staurosporin (SelleckChem, S1421) or test compounds.
Sample processing. After 72 hours, cultures were fixed with 4% Formaldehyde (Sigma Aldrich) and simultaneously permeabilized with 0.2% Triton-X100 (Sigma Aldrich) and stained with 0.25 μM rhodamine-phalloidin (Sigma Aldrich) and 0.1% Hoechst 33258 (Sigma Aldrich) in 1×PBS (Sigma Aldrich) for 2 days at 4° C., protected from light. After fixation and staining, plates were washed with 1×PBS, sealed with a Greiner SilverSeal (Greiner Bio-One B.V.) and stored at 4° C. prior to imaging.
Imaging and image analysis. Imaging was done using Molecular Devices ImageXpress Micro XLS (Molecular Devices) with a 4× NIKON objective. For each well around 35 images in the Z-direction were made for both channels, capturing the whole z-plane in each image. Image analysis was performed using Ominer™ software (OcellO BV). Cysts were segmented using detection of Hoechst-stained nuclei and Rhodamine-phalloidin-stained cellular f-actin. Cyst area was determined by calculating for the area in px of each object in every in-focus plain. This was averaged per well. (N represented is number of wells) Fraction of apoptotic nuclei as an indicator of toxicity was calculated as the amount of nuclei without actin signal relative to the total amount of nuclei, both as count-measurements. Statistics was done using KNIME Analytics Platform (Konstanz, Germany, http://www.knime.org/), graphs were prepared in GraphPad Prism 6 (GraphPad Software, La Jolla, Calif.).

## C[C@@H](O)CC(=O)CC(=O)SCCNC(=O)CCNC(=O)[C@H](O)C(C)(C)CO [Compound 42, (2R)-2,4-dihydroxy-N-[2-[(2-[[(5R)-5-hydroxy-3-oxohexanoyl]sulfanyl]ethyl)carbamoyl]ethyl]-3,3-dimethylbutanamide]
[1]
  % increase in Proliferation: ≥10%

## COC(=O)CC(SCCNC(=O)CCNC(=O)[C@H](O)C(C)(C)COC(C)=O)C(=O)OC (stereo partly drawn) [Compound 149, 1,4-dimethyl 2-[(2-[3-[(2R)-4-(acetyloxy)-2-hydroxy-3,3-dimethylbutanamido]propanamido]ethyl)sulfanyl]butanedioate]
[2]; 50 uM
  % prevention of forskolin-induced cyst swelling: ≥10%

## CC(C)(CO)[C@@H](O)C(=O)NCCC(=O)NCCSC(=O)[C@@H](N)Cc1ccc(O)c(O)c1 [Compound 371, (2R)—N-[2-[(2-[[(2S)-2-amino-3-(3,4-dihydroxyphenyl)propanoyl]sulfanyl]ethyl)carbamoyl]ethyl]-2,4-dihydroxy-3,3-dimethylbutanamide]
[1]
  % decrease in Proliferation: ≥10%
  % increase in PBMC cytotoxicity: ≥10%

## CCCCCCC(=O)SCCNC(=O)CCNC(=O)[C@H](O)C(C)(C)CO [Compound 372, (2R)—N-(2-[[2-(heptanoylsulfanyl)ethyl]carbamoyl]ethyl)-2,4-dihydroxy-3,3-dimethylbutanamide]
[1]
  % increase in Proliferation: ≥10%

## CC(=O)SCCNC(=O)CCNC(=O)[C@H](O)C(C)(C)COC(=O)[C@@H](N)Cc1ccc(O)c(O)c1 [Compound 498, (3R)-3-[(2-[[2-(acetylsulfanyl)ethyl]carbamoyl]ethyl)carbamoyl]-3-hydroxy-2,2-dimethylpropyl (2S)-2-amino-3-(3,4-dihydroxyphenyl)propanoate]
[1]
  % decrease in Proliferation: ≥10%

## CC(C)(CO)[C@@H](O)C(=O)NCCC(=O)NCCSC(=O)C1CCC(=O)N1 (stereo partly drawn) [Compound 1227, S-2-{3-[(R)-2,4-dihydroxy-3,3-dimethylbutyrylamino]propionylamino}ethyl 5-oxo-2-pyrrolidinecarbothioate]
[2]; 10 uM
  % prevention of forskolin-induced cyst swelling: ≥10%

## C[C@H](CC(=O)SCCNC(=O)CCNC(=O)[C@H](O)C(C)(C)CO)OC(=O)CCC(=O)O [Compound 1243, 4-{[(2R)-4-[(2-{3-[(2R)-2,4-dihydroxy-3,3-dimethylbutanamido]propanamido}ethyl)sulfanyl]-4-oxobutan-2-yl]oxy}-4-oxobutanoic acid]
[2]; 50 uM
  % prevention of forskolin-induced cyst swelling: ≥10%

## CC(C)(CO)[C@@H](O)C(=O)NCCC(=O)NCCSC(=O)CCCO [Compound 1304, (2R)-2,4-dihydroxy-N-[2-([2-[(4-hydroxybutanoyl)sulfanyl]ethyl]carbamoyl)ethyl]-3,3-dimethylbutanamide]
[2]; 10 uM
  % prevention of forskolin-induced cyst swelling: ≥10%
